Key:
BEAS-2B = test: Antiinflammatory activity in human BEAS2B cells assessed as inhibition of IL4-induced eotaxin production after 48 hrs by ELISA pretreated for 2 hrs before IL4 challenge; format: functional, cell-based
[1] = Cytotoxicity against human BEAS2B cells at 10 uM after 48 hrs by MTT assay in the presence of IL4; format: cell-based; settings: beas-2b
[2] = Antiinflammatory activity in human BEAS2B cells assessed as inhibition of IL4 and TNF-alpha-induced eotaxin production after 48 hrs by ELISA pretreated for 2 hrs before IL4 and TNFalpha challenge (Rvb= 450+/-38.4 pg/mL); format: functional, BEAS-2B
[3] = Cytotoxicity against human BEAS2B cells at 10 uM after 48 hrs by MTT assay; format: cell-based; settings: beas-2b
[4] = Antiinflammatory activity in human BEAS2B cells assessed as inhibition of IL4-induced eotaxin production at 10 uM after 48 hrs by ELISA pretreated for 2 hrs before IL4 challenge (reference value: 58.5+/-4.7 ng/mL); format: functional, BEAS-2B
[5] = Antiinflammatory activity in human BEAS2B cells assessed as inhibition of IL4 and TNF-alpha-induced eotaxin production at 10 uM after 48 hrs by ELISA pretreated for 2 hrs before IL4 and TNFalpha challenge; format: functional, BEAS-2B

SMILES	Activity (BEAS-2B)	Activity [1]	Activity [2] [pg/mL]	Activity [3]	Activity [4] [pg/mL]	Activity [5] [pg/mL]
CC(C)=CCC[C@](C)(O[C@@H]1O[C@H](CO[C@@H]2OC[C@@H](O)[C@H](O)[C@H]2O)[C@@H](O)[C@H](O)[C@H]1O)[C@H]1CC[C@]2(C)[C@@H]1[C@H](O)C[C@@H]1[C@@]3(C)C[C@@H](O)[C@H](O[C@@H]4O[C@H](CO)[C@@H](O[C@@H]5O[C@H](CO)[C@@H](O)[C@H](O)[C@H]5O)[C@H](O)[C@H]4O)C(C)(C)[C@@H]3CC[C@]12C	Dose-dependent effect	Non-toxic	197.2	Non-toxic		
COc1ccc2ccc(=O)oc2c1CC=C(C)C [OSTHOLE]					16.8	187.3
CC(=O)OC[C@H]1O[C@@H](O[C@H]2[C@H](O[C@@](C)(CCC=C(C)C)[C@H]3CC[C@]4(C)[C@@H]3[C@H](O)C[C@@H]3[C@@]5(C)C[C@@H](O)[C@H](O[C@@H]6O[C@H](CO)[C@@H](O)[C@H](O)[C@H]6O)C(C)(C)[C@@H]5CC[C@]34C)O[C@H](CO)[C@@H](O)[C@@H]2O)[C@H](O)[C@@H](O)[C@@H]1O	Dose-dependent effect					157.2
